pIC50: −log10 of the molar value.
Molecular target: Rho-associated protein kinase 2 (Homo sapiens, UniProt O75116)
Experiment: In Vitro Assay: The effectiveness of compounds of the present invention as ROCK inhibitors can be determined in a 30 μL assay containing 20 mM HEPES, pH 7.5, 20 mM MgCl2, 0.015% Brij-35, 4 mM DTT, 5 μM ATP and 1.5 μM peptide substrate (FITC-AHA-[…]-OH). Compounds were dissolved in DMSO so that the final concentration of DMSO was <2%, and the reaction was initiated with Rho kinase variants. After incubation, the reaction was terminated by the addition of EDTA and the phosphorylated and non-phosphorylated peptides separated using a LABCHIP® 3000 Reader (Caliper Life Sciences).

Rho-associated protein kinase 2, sequence (O75116 whole entry, looked up, change not shown): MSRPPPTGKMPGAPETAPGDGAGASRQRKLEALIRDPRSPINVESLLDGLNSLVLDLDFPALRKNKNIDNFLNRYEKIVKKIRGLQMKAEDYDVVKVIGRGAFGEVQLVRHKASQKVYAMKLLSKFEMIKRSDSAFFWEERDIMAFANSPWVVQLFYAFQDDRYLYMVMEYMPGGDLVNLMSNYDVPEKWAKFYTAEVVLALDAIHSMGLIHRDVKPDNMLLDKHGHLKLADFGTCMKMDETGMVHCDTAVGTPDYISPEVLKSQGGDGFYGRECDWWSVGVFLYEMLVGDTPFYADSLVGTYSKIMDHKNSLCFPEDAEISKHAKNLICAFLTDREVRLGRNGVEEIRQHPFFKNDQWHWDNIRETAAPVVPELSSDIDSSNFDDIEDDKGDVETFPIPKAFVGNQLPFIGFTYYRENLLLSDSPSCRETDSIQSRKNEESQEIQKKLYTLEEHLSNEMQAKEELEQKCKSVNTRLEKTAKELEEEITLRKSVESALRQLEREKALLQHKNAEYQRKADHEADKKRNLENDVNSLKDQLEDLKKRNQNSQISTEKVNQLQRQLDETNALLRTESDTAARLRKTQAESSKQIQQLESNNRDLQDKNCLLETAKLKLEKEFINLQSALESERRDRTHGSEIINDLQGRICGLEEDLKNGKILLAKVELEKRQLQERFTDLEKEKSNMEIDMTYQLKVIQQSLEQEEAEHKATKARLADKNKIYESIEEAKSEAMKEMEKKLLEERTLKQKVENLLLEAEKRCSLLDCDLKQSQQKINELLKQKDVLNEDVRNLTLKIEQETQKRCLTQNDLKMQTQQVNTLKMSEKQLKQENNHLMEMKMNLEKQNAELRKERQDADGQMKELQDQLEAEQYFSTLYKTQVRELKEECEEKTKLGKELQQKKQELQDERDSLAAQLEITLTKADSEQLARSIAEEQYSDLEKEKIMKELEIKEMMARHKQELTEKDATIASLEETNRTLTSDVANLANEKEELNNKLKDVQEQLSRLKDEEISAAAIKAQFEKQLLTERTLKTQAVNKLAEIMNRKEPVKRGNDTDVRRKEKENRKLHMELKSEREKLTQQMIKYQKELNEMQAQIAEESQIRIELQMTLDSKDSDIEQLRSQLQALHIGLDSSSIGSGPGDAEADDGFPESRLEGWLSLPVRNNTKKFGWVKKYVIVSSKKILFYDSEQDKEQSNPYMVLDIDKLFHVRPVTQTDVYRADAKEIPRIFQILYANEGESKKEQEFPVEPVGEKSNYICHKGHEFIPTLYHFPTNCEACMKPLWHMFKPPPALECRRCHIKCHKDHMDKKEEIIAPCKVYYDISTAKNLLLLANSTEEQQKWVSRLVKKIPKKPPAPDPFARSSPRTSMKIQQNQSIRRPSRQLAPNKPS

Compound: COc1cc(C(=O)NCC2=CCC3NC(=O)NC3=C2)ccc1-c1cn[nH]c1 (stereo unspecified)
- pIC50: 6.18

From ChEMBL document CHEMBL3886981, “Phenylpyrazole derivatives as potent ROCK1 and ROCK2 inhibitors” (2016)
